We go through twelve molecules from patent publication US8546424B2, “Acetylene derivatives of 5-phenyl-pyrazolopyridine, preparation thereof, and therapeutic use thereof” (Sanofi, priority 2009, dated 2013).

pEC50: −log10 of the molar value.

One data set addresses T1, mouse Nurr1 receptor (Mus musculus, UniProt Q06219).
T1 construct: endogenously expressing the mouse Nurr1 receptor; host or cells: Neuro-2A (N2A) mouse neuroblastoma cells stably transfected with 8NBRE-luciferase
Put plainly: in vitro activity on N2A cells (8NBRE-luciferase reporter). The note with it: N2A-8NBRE cells, 24 hours incubation. Format: cell-based. How it is done:
The compounds according to the invention have formed the subject of pharmacological assays which make it possible to determine their modulatory effect on NOT. Evaluation of the in vitro Activity on N2A Cells
The activity of the compounds according to the invention was evaluated on a cell line (N2A) endogenously expressing the mouse Nurr1 receptor and stably transfected with the NOT binding response element (NBRE) coupled to the luciferase reporter gene. The assays were carried out according to the procedure described below.
The Neuro-2A cell line comes from a standard commercial source (ATCC). The Neuro-2A clone was obtained, from a spontaneous tumour originating from an A albino mouse strain, by R. J Klebe et al. This Neuro-2A line is subsequently stably transfected with 8NBRE-luciferase. The N2A-8NBRE cells are cultured until confluence in 75 cm^2 culture flasks containing DMEM supplemented with 10% of foetal calf serum, 4.5 g/l of glucose and 0.4 mg/ml of geneticin. After a week of culture, the cells are recovered with 0.25% trypsin for 30 seconds and then resuspended in DMEM without phenol red, containing 4.5 g/l of glucose and 10% of Hyclone delipidized serum, and deposited into transparent-bottom 96-well white plates. […] The plates are subsequently measured in a luminescence counter for microplates after having been sealed with an adhesive film. […]

T1 sequence (Q06219 whole entry): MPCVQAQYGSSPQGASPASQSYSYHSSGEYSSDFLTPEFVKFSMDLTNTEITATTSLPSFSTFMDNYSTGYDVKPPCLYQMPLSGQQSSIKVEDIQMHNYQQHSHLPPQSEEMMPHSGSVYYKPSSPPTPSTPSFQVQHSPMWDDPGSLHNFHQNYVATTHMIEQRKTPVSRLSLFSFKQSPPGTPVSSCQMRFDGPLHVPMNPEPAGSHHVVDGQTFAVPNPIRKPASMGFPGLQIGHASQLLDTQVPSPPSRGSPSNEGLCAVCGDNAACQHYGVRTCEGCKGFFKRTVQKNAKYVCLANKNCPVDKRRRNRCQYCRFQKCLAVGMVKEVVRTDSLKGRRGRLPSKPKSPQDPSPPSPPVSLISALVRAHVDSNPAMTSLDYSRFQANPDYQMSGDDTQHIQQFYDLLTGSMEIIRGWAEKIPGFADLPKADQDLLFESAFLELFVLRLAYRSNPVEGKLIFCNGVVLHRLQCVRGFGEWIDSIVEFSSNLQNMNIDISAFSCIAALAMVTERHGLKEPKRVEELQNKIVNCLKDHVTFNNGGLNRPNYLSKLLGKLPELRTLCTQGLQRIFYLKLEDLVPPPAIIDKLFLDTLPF

Consider `C#CC(O)c1cccc(-c2ccn3nc(-c4ccc(Cl)cc4)cc3c2)c1` (racemic) [Compound 1, 1-{3-[2-(4-Chlorophenyl)pyrazolo[1,5-a]pyridin-5-yl]phenyl}prop-2-yn-1-ol], for which the melting point fell in the range of 195 to 197 °C.
`C#CC(O)c1cccc(-c2ccn3nc(-c4ccc(F)cc4)cc3c2)c1` (racemic) [Compound 2, 1-{3-[2-(4-Fluorophenyl)pyrazolo[1,5-a]pyridin-5-yl]phenyl}prop-2-yn-1-ol]: the melting point was 192 to 194 °C. Moreover, the pEC50 on mouse Nurr1 receptor was 8.52.
`CC#CC(O)c1cccc(-c2ccn3nc(-c4ccc(F)cc4)cc3c2)c1` (racemic) [Compound 3, 1-{3-[2-(4-Fluorophenyl)pyrazolo[1,5-a]pyridin-5-yl]phenyl}but-2-yn-1-ol] had a melting point of 164 to 166 °C.
The molecule `C#CC(C)(O)c1cccc(-c2ccn3nc(-c4ccc(F)cc4)cc3c2)c1` (racemic) [Compound 4, 2-{3-[2-(4-Fluorophenyl)pyrazolo[1,5-a]pyridin-5-yl]phenyl}but-3-yn-2-ol] displayed a melting point of 215 to 217 °C.
The same measure, in the same setting: for `C#CC(O)c1ccccc1-c1ccn2nc(-c3ccc(F)cc3)cc2c1` (racemic) [Compound 5, 1-{2-[2-(4-Fluorophenyl)pyrazolo[1,5-a]pyridin-5-yl]phenyl}prop-2-yn-1-ol] the value was 104 to 106 °C; for `C#CC(O)c1c(F)ccc(-c2ccn3nc(-c4ccc(F)cc4)cc3c2)c1F` (racemic) [Compound 6, 1-{2,6-Difluoro-3-[2-(4-fluorophenyl)pyrazolo[1,5-a]pyridin-5-yl]-phenyl}prop-2-yn-1-ol], 151 to 153 °C; for `C#CC(O)c1cccc(-c2ccn3nc(-c4ccccc4F)cc3c2)c1` (racemic) [Compound 7, 1-{3-[2-(2-Fluorophenyl)pyrazolo[1,5-a]pyridin-5-yl]phenyl}prop-2-yn-1-ol], 157 to 159 °C.
On the same count and under the same terms, for `C#CC(O)c1cccc(-c2ccn3nc(-c4ccc(C)cc4)cc3c2)c1` (racemic) [Compound 8, 1-[3-(2-{p-Tolyl}pyrazolo[1,5-a]pyridin-5-yl)phenyl]prop-2-yn-1-ol] the value was 183 to 185 °C.
`C#CC(O)c1cccc(-c2ccn3nc(-c4ccc(F)cc4)cc3c2)c1` (single isomer, unassigned; (+)) [Compound 10, (+)-1-{3-[2-(4-Fluorophenyl)pyrazolo[1,5-a]pyridin-5-yl]phenyl}prop-2-yn-1-ol] had a melting point of 139 to 141 °C.
`C#CC(C)(O)c1cccc(-c2ccn3nc(-c4ccc(F)cc4)cc3c2)c1` (single isomer, unassigned; (+)) [Compound 12, (+)-2-{3-[2-(4-Fluorophenyl)pyrazolo[1,5-a]pyridin-5-yl]phenyl}but-3-yn-2-ol] came in with a melting point of 126 to 128 °C.
Molecule `C#CC(O)c1cccc(-c2ccn3nc(-c4ccc(F)cc4)cc3c2)c1` (single isomer, unassigned; (-)) [Compound 9, (−)-1-{3-[2-(4-Fluorophenyl)pyrazolo[1,5-a]pyridin-5-yl]phenyl}prop-2-yn-1-ol] displayed a melting point of 147 to 149 °C.
As to `C#CC(C)(O)c1cccc(-c2ccn3nc(-c4ccc(F)cc4)cc3c2)c1` (single isomer, unassigned; (-)) [Compound 11, (−)-2-{3-[2-(4-Fluorophenyl)pyrazolo[1,5-a]pyridin-5-yl]phenyl}but-3-yn-2-ol], the melting point fell in the range of 122 to 124 °C.

As a reminder, the melting point is the temperature of the solid-liquid transition. As a reminder, the pEC50 is the EC50 on a negative log10 scale, so that one unit is a factor of ten. A lower pEC50 goes with a large EC50.
